# Laboratory results published in US9855255B1, “Substituted naphthyridinyl hydrazines as anti-liver cancer agents” (KING SAUD UNIVERSITY, priority 2017, dated 2018).
# How the values were obtained:
# HepG2 (Liver) = experiment: MTT cell proliferation and viability assay on liver HEPG2 cancer cell line; assay type: cell-based; conditions: Homo sapiens, 48 hours, read-out: IC50 cytotoxic activity
# Experimental: In the following examples, human cancer cell line HepG2 (Liver) was grown in DMEM media supplemented with 10% bovine serum, 1× penicillin-streptomycin (Sigma-Aldrich) at 37° C. in a humidified chamber with 5% CO2. 5-Flurourasil (Sigma-Aldrich) was used as the reference drug (standard).
# Cells were seeded (1×10^5 cells/well in triplicate) in a 96-well flat-bottom plate (Becton-Dickinson Lab ware) a day before treatment and grown. Stocks of all extracts/compounds (1.0 mg/ml) were made with 5% DMSO (Sigma-Aldrich), and further working solutions (100 μg/ml) were prepared in serum-free culture media. Cells were treated with four different doses (2, 6.2, 12.5, and 25 μg/ml; in triplicate) of the compounds in complete growth media, including reference drug, and further incubated for 48 hours.
# On day 2 of treatment, cell proliferation and viability test was performed using TACS MTT Cell Proliferation and Viability Assay Kit (TACS), as per manufacturer's instructions. The relationship between surviving fraction and compound concentration was plotted to obtain the survival curve of cancer cell lines. The response parameter calculated was the IC50 value, which corresponds to the concentration required for 50% inhibition of cell viability.
# [1] = Effect on biochemical parameters in mice serum; assay type: in vivo; conditions: single i.p. 12 mg/kg, blood after 7 days; for Albumin / Bilirubin / Cholestrol / Creatinine / Globulin / Total Lipids / Triglycerides / Alanine amino transferase ALT / Alkaline phosphatase ALP / Aspartate amino transferase AST: Mean + S.D.; for Alanine amino transferase ALT / Alkaline phosphatase ALP / Aspartate amino transferase AST: 12 mg/kg
# Excerpt: Male albino mice, weighing 18-20 g each, were used in a study. The mice were divided into three main groups, as follows. Group 1 is the untreated control group (5 mice); Group 2 is divided into two subgroups (5 mice in each subgroup), treated with either 5-FU (5-Fluorouracil) or DOX (Doxorubicin) as reference anticancer drugs. Group 3 is divided into ten subgroups (5 mice for each subgroup) and treated with the present substituted naphthyridinyl hydrazine compounds. The mice were housed in wide cages and well aerated rooms, and fed standard diets and clean water. Blood collection from the animals was done with heparinized cannula, and the mice were left alive.
# For treatment, in Group 1, each mouse was given a single intraperitoneal (i.p.) injection of 0.1 mL DMSO; in Group 2, each mouse was given a single i.p. injection of 0.1 mL containing 12 mg/kg body weight of 5-FU or DOX dissolved in sterile water; and in Group 3, each mouse was given a single intraperitoneal injection of 0.1 mL containing 12 mg/kg body weight of the selected furan derivatives dissolved in 0.01% DMSO. Blood was collected after 7 days from all mouse groups.
# The biochemical effects of formula 1 compounds on some liver enzymes in mouse blood serum was studied. Effects on aspartate and alanine aminotransferases (AST and ALT), and alkaline phosphatase (ALP), were examined using a blood auto analyzer, Olympus AV 400, Japan. Moreover, albumin, globulins, creatinine, total lipids, cholesterol, triglycerides, and bilirubin were evaluated, in comparison to treatment using 5-FU or DOX. Statistical analysis of the results was performed using Chi-square values (SPSS computer program).
# [2] = tested on: various human cancer cell lines; experiment: Single-dose screening against a variety of human cancer cell lines; assay type: cell-based; conditions: leukemia, non-small cell lung, colon, CNS, melanoma, ovarian, renal, prostate, breast cancer cell lines
# Excerpt: FIGS. 5A and 5B are a chart showing results of single-dose screening for various human cancer cell lines treated with compound 6 (a substituted naphthyridinyl hydrazine according to the present invention).
# HeLa cells = experiment: Phase contrast microscopy of morphological changes in HeLa cells; assay type: cell-based; conditions: after 12 and 24 hrs
# Experimental: B. Similar studies were done with HeLa cells. Cells were seeded in 6-well plates and allowed to adhere at 37° C. in CO2 incubator. After 24 h, each well was treated with 4.6 μM 2,6P-OLA and incubated for the indicated time. After 12 and 24 h, the cells were imaged by phase contrast microscope (Olympus CLX 41) to visualize morphological changes in HeLa cells.
# B. Change in LeLa cells after treatment with compound 6 was also studied for morphological variations using the phase contrast microscopy.
# HepG2 cells = experiment: Phase contrast microscopy of morphological changes in HepG2 cells; assay type: cell-based, human; conditions: for Morphological changes of HepG2 cells: 10 μg
# Experimental: (§1) The cells were seeded in 6-well plates and allowed to adhere at 37° C. in a CO2 incubator. After 24 h, each well was treated with 10 μg compound and incubated for the indicated time. After 24 and 48 hrs, the cells were imaged by phase contrast microscope (Olympus CLX 41) to visualize morphological changes in HepG2 cells.
# as §1, with “A. The” for “The”, “in” for “in a”, “μg of” for “μg”, “compound 6” for “compound”
# A. Change in HepG2 cells after treatment with compound 6 was studied for morphological variations using the phase contrast microscopy.
# Many characteristic features occur in cells undergoing a series of biochemical events during apoptosis. Various morphological changes, such as blebbing, loss of membrane asymmetry, cell shrinkage, nuclear fragmentation, chromatin condensation, and chromosomal DNA fragmentation occur.
structure (smiles),measurement,setting,value
"O=c1[nH]cc(F)c(=O)[nH]1 [Compound 5-FU, 5-Fluorouracil]",IC50,HepG2 (Liver),5 µg/mL
same,A/G ratio,[1],1.13
same,Albumin,[1],6.49 ± 0.92 mg/d1
same,Bilirubin,[1],0.75 ± 0.10 mg/dL
same,Cholestrol,[1],105.9 ± 11.7 mg/dL
same,Creatinine,[1],0.81 ± 0.06 mg/dL
same,Globulin,[1],5.75 ± 0.8 mg/dL
same,Total Lipids,[1],378.2 ± 31.4 mg/dL
same,Triglycerides,[1],126.5 ± 19.4 mg/dL
"Cc1ccc2c(N/N=C/c3ccccc3[N+](=O)[O-])cc(C)nc2n1 [Compound 6, (E)-2-(2-Nitrobenzylidene)-1-(2,7-dimethyl-1,8-naphthyridin-5-yl)hydrazine]",IC50,HepG2 (Liver),0.885 µg/mL
same,Cancer cell growth in single-dose screening,[2],significant decreases in cancer cell growth
same,A/G ratio,[1],1.23
same,Albumin,[1],7.73 ± 0.52 mg/d1
same,Bilirubin,[1],0.76 ± 0.15 mg/dL
same,Cholestrol,[1],93.24 ± 19.53 mg/dL
same,Creatinine,[1],0.71 ± 0.21 mg/dL
same,Globulin,[1],6.25 ± 0.82 mg/dL
same,Total Lipids,[1],326.32 ± 19.3 mg/dL
same,Triglycerides,[1],110.54 ± 17.8 mg/dL
same,Alanine amino transferase ALT,[1],46.09 ± 6.13 IU/ml
same,Alkaline phosphatase ALP,[1],21.59 ± 3.42 k.k./dl
same,Aspartate amino transferase AST,[1],112.81 ± 9.88 IU/ml
same,Alanine amino transferase ALT,[1]; listed as new compound,non-significant (n.s.) or slightly higher
same,Alkaline phosphatase ALP,[1]; listed as new compound,no significant changes
same,Aspartate amino transferase AST,[1]; listed as new compound,non-significant (n.s.) or slightly higher
same,Morphological variations of HeLa cells,HeLa cells,Changes in surface morphology were observed
same,melting point,,255 to 256 °C
same,Morphological changes of HepG2 cells,"HepG2 cells; 24 hours, FIG. 7B",onset of apoptotic characteristics
same,Morphological changes of HepG2 cells,"HepG2 cells; 48 hours, FIG. 7C",blebbing and loss of basal attachment and membrane asymmetry is markedly seen
same,Morphological variations of HepG2 cells,"HepG2 cells; after 24 and 48 hrs, phase contrast microscopy",Changes in surface morphology
"Cc1ccc2c(N/N=C3\C(=O)Nc4ccccc43)cc(C)nc2n1 [Compound 8b, (3Z)-3-[2-(2,7-Dimethyl-1,8-naphthyridin-4-yl)hydrazinylidene]-1,3-dihydro-2H-indol-2-one]",melting point,,> 300 °C
"Cc1ccc2c(N/N=C3\C(=O)Nc4ccc(Cl)cc43)cc(C)nc2n1 [Compound 8c, (3Z)-5-Chloro-3-[2-(2,7-dimethyl-1,8-naphthyridin-4-yl)hydrazinylidene]-1,3-dihydro-2H-indol-2-one]",melting point,,> 300 °C
COc1cccc2c1C(=O)c1c(O)c3c(c(O)c1C2=O)C[C@@](O)(C(=O)CO)C[C@@H]3O[C@H]1C[C@H](N)[C@H](O)[C@H](C)O1 [Doxorubicin],IC50,HepG2 (Liver),3.56 µg/mL
same,A/G ratio,[1],1.078
same,Albumin,[1],6.37 ± 0.85 mg/d1
same,Bilirubin,[1],0.81 ± 0.19 mg/dL
same,Cholestrol,[1],109.3 ± 14.2 mg/dL
same,Creatinine,[1],0.78 ± 0.04 mg/dL
same,Globulin,[1],5.91 ± 0.63 mg/dL
same,Total Lipids,[1],21.94 ± 3.4 mg/dL
same,Triglycerides,[1],137.8 ± 17.10 mg/dL
same,Alanine amino transferase ALT,[1],59.26 ± 12.03 IU/ml
same,Alkaline phosphatase ALP,[1],30.31 ± 5.14 k.k./dl
same,Aspartate amino transferase AST,[1],147.22 IU/ml
same,Alanine amino transferase ALT,[1]; listed as DOX,significantly higher
same,Alkaline phosphatase ALP,[1]; listed as DOX,significantly increased
same,Aspartate amino transferase AST,[1]; listed as DOX,significantly higher
